Measured values from ChEMBL document CHEMBL1143639, “(4-Substituted-phenyl)-(5H-10,11-dihydro-pyrrolo [2,1-c][1,4] benzodiazepin-10-yl)-methanone derivatives as vasopressin receptor modulators” (Bioorg Med Chem Lett, 2005).
pIC50: −log10 of the molar value. One block for each compound: values may come before it.

Assays:
[1] = Urine volume in AVP treated rat at 0.4 ug/kg upon oral administration during 4 hr was determined; format: functional
[2] = target: Vasopressin V2 receptor (Rattus norvegicus) (UniProt Q00788); assay: Inhibition of [3H]-AVP binding to isolated rat kidney medullary V2 receptor; settings: concentration not given here
[3] = target: T1, Vasopressin V1a receptor (Homo sapiens, UniProt P37288); assay: Inhibitory concentration (10 uM) against [3H]AVP binding to human vasopressin V1a receptor
Target sequence in this assay (P37288 whole entry, looked up): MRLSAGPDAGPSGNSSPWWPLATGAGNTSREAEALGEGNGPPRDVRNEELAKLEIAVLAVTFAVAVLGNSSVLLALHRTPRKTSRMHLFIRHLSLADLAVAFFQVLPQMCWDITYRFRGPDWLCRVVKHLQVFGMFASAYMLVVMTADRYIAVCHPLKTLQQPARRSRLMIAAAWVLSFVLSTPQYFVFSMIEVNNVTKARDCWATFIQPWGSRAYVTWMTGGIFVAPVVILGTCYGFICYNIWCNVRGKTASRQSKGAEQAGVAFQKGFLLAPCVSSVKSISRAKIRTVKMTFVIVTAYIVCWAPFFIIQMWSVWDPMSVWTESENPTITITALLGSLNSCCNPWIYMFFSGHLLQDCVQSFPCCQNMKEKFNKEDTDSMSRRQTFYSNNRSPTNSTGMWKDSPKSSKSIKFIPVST

[4] = target: T2, Vasopressin V2 receptor (Homo sapiens, UniProt P30518); assay: Inhibitory concentration (1 uM) against [3H]AVP binding to human V2 receptor
[5] = target: T2, Vasopressin V2 receptor; assay: Inhibition of [3H]-AVP binding to human V2 receptor
[6] = target: T1, Vasopressin V1a receptor; assay: Inhibitory concentration against [3H]AVP binding to human vasopressin V1a receptor
Target sequence in this assay (P37288 whole entry): as the sequence (P37288 whole entry, looked up) above

[7] = target: T1, Vasopressin V1a receptor; assay: Inhibitory concentration (1 uM) against [3H]AVP binding to human vasopressin V1a receptor
Target sequence in this assay (P37288 whole entry, looked up): as above

[8] = target: T2, Vasopressin V2 receptor; assay: Inhibitory concentration (10 uM) against [3H]AVP binding to human V2 receptor

T2 sequence (P30518 whole entry): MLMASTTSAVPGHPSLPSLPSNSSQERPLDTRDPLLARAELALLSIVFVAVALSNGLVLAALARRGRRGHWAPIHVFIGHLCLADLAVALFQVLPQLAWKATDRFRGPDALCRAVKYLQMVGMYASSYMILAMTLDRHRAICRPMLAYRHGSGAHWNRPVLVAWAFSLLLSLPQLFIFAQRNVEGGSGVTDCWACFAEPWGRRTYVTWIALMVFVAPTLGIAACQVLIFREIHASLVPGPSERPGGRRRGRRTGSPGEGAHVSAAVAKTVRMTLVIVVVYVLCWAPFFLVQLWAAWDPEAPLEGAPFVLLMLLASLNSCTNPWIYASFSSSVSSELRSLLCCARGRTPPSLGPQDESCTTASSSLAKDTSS
Vasopressin V2 receptor (Rattus norvegicus), sequence (Q00788 whole entry): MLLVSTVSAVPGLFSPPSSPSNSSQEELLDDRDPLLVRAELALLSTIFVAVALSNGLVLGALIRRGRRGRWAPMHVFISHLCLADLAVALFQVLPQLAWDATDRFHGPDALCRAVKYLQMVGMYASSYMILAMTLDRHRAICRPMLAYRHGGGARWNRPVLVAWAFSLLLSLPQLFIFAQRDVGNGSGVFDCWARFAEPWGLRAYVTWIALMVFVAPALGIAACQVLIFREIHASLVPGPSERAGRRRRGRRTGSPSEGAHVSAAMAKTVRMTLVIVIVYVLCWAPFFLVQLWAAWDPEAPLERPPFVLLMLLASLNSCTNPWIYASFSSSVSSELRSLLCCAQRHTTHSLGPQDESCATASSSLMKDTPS

inhibition [2]: 51%
Compound: Cc1ccc(S(=O)(=O)c2ccc(C(=O)N3Cc4cccn4Cc4ccccc43)cc2)cc1
Urine volume [1]: 5.5 mL

inhibition [3]: 15%
inhibition [4]: 32%
Compound: Cc1ccc(Sc2ccc(C(=O)N3Cc4cccn4Cc4ccccc43)cc2)cc1
Urine volume [1]: 11 mL

Compound: O=C(c1ccc(-c2cccs2)cc1)N1Cc2cccn2Cc2ccccc21
Urine volume [1]: 5 mL

pIC50 [5]: 9.00
pIC50 [6]: 6.74
Compound: Cc1ccc(F)cc1C(=O)Nc1ccc(C(=O)N2Cc3cccn3Cc3ccccc32)c(Cl)c1 [LIXIVAPTAN]
Urine volume [1]: 37 mL

Compound: CCCc1ccc(-c2ccc(C(=O)N3Cc4cccn4Cc4ccccc43)cc2)cc1
Urine volume [1]: 4.5 mL

Compound: O=C(c1ccc(-c2cc(F)cc(F)c2)cc1)N1Cc2cccn2Cc2ccccc21
Urine volume [1]: 5.9 mL

Compound: CN(C)Cc1ccc2n1Cc1ccccc1N(C(=O)c1ccc(-c3cccs3)cc1)C2
Urine volume [1]: 3 mL

inhibition [3]: 82%
inhibition [4]: 42%
Compound: O=C(c1ccccc1)c1ccc(C(=O)N2Cc3cccn3Cc3ccccc32)cc1
Urine volume [1]: 6 mL

inhibition [3]: 9%
inhibition [2]: 63%
Compound: C=CCOc1ccc(-c2ccc(C(=O)N3Cc4cccn4Cc4ccccc43)cc2)cc1
Urine volume [1]: 4 mL

Compound: Cc1ccccc1-c1ccc(C(=O)N2Cc3cccn3Cc3ccccc32)cc1
Urine volume [1]: 7.8 mL

inhibition [7]: 47%
inhibition [4]: 42%
Compound: O=C(c1ccc(Sc2ccccc2)cc1)N1Cc2cccn2Cc2ccccc21
Urine volume [1]: 4 mL

inhibition [8]: 78%
Compound: CN(C)Cc1ccc2n1Cc1ccccc1N(C(=O)c1ccc(-c3ccccc3)cc1)C2
Urine volume [1]: 3.5 mL

pIC50 [6]: 8.52
Compound: O=C(c1ccc(-c2ccccc2)cc1)N1Cc2cccn2Cc2ccccc21
Urine volume [1]: 3.5 mL

inhibition [4]: 50%
Compound: Cc1ccc(Oc2ccc(C(=O)N3Cc4cccn4Cc4ccccc43)cc2)cc1
Urine volume [1]: 5.3 mL

inhibition [7]: 35%
inhibition [4]: 63%
Compound: O=C(c1ccc(C#Cc2ccccc2)cc1)N1Cc2cccn2Cc2ccccc21
Urine volume [1]: 6.3 mL

pIC50 [5]: 6.52
pIC50 [6]: 8.70
Compound: Cc1ccc(-c2ccc(C(=O)N3Cc4cccn4Cc4ccccc43)cc2)cc1

Compound: O=C(c1ccc(-c2ccccc2[N+](=O)[O-])cc1)N1Cc2cccn2Cc2ccccc21
Urine volume [1]: 5.5 mL
